The values below come from patent publication US20230416227A1, “PLASMA KALLIKREIN INHIBITORS” (Merck Sharp & Dohme LLC, priority 2020, published 2023).

The target in experiment [1] is human factor XIa (Homo sapiens, UniProt P03951). Nature of the experiment: Factor XIa Assay. It counts as biochemical. The settings on record: human factor XIa 0.04 nM, substrate GPR-AFC, 30 min pre-incubation at 25° C., pH 7.4; read-out: FXIa IC50.
For experiment [2], the target named is T1, Human plasma kallikrein (Homo sapiens, UniProt P03952).
T1 construct: yields a heavy chain (371 amino acids) and a light chain (248 amino acids); purchased Enzyme Research Laboratories
T1 sequence (P03952 391-638 limits assumed): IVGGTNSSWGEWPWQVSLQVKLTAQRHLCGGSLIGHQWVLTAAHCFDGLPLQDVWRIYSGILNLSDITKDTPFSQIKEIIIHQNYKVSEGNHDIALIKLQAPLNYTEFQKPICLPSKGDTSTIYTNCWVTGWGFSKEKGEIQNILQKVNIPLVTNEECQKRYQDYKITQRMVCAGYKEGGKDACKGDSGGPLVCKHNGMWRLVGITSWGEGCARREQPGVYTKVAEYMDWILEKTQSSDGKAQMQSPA
T1 sequence (P03952 20-390 partner limits assumed): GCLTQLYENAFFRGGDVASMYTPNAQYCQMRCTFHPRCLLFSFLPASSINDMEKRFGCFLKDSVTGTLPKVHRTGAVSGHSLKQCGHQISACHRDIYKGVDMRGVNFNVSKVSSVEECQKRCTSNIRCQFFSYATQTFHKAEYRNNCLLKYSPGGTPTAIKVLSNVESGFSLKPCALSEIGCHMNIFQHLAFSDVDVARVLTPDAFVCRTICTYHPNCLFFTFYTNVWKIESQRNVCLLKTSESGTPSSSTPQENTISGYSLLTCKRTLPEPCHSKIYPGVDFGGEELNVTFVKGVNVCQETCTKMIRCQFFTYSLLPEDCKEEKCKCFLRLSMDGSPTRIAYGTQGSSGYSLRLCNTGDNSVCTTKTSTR
Nature of the experiment: Plasma Kallikrein Assay. As to conditions: purified Human plasma kallikrein 0.5 nM, substrate Acetyl-K-P-R-AFC, pH 7.4. It counts as biochemical.

Sequence of human factor XIa (P03951 388-625 limits assumed): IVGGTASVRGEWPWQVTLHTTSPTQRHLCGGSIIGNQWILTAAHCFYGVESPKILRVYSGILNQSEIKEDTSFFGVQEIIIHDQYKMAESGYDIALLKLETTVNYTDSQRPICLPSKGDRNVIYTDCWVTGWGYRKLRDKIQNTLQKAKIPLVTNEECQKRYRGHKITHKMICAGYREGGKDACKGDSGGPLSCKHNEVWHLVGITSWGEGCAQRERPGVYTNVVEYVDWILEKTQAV
Sequence of human factor XIa (P03951 19-387 partner limits assumed): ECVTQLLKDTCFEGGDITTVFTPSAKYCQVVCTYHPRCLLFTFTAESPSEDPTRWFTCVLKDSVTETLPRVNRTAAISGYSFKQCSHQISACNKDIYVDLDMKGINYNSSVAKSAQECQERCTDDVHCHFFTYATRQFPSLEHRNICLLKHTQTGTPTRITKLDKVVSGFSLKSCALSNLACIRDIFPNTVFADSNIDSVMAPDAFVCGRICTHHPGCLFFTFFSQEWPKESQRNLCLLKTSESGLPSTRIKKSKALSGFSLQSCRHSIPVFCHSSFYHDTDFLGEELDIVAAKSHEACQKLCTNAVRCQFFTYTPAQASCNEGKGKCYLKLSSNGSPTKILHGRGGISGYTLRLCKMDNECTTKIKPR

As to `CO[C@H]1CN(C[C@@H]2CCN2c2ncc(C(C)n3cc(NC(=O)c4cncc(-c5c(C(F)F)ccc(Cl)c5F)n4)cn3)cn2)C[C@@H]1O` (stereo partly drawn) [Example 165, 6-(3-Chloro-6-(difluoromethyl)-2-fluorophenyl)-N-(1-(1-(2-((S)-2-(((3S,4S)-3-hydroxy-4-methoxypyrrolidin-1-yl)methyl)azetidin-1-yl)pyrimidin-5-yl)ethyl)-1H-pyrazol-4-yl)pyrazine-2-carboxamide], the IC50 (in general, the concentration at which inhibition is half-maximal) in experiment [1] stood at 4270 nM; in experiment [2], 1.4 nM.
The corresponding values for `CC(c1cnc(N2CC[C@H]2CN2CCC(C)(O)C2)nc1)n1cc(NC(=O)c2cncc(-c3c(C(F)F)ccc(Cl)c3F)n2)cn1` (stereo partly drawn) [Example 166, 6-(3-Chloro-6-(difluoromethyl)-2-fluorophenyl)-N-(1-(1-(2-((2S)-2-((3-hydroxy-3-methylpyrrolidin-1-yl)methyl)azetidin-1-yl)pyrimidin-5-yl)ethyl)-1H-pyrazol-4-yl)pyrazine-2-carboxamide] are 5770 nM and 0.7 nM.
The matching figures for `CC(c1cnc(N2CC[C@H]2CN2C[C@@H](O)[C@@H](O)C2)nc1)n1cc(NC(=O)c2cncc(-c3c(C(F)F)ccc(Cl)c3F)n2)cn1` (stereo partly drawn) [Example 167, 6-(3-Chloro-6-(difluoromethyl)-2-fluorophenyl)-N-(1-(1-(2-((S)-2-(((3R,4S)-3,4-dihydroxypyrrolidin-1-yl)methyl)azetidin-1-yl)pyrimidin-5-yl)ethyl)-1H-pyrazol-4-yl)pyrazine-2-carboxamide]: 5820 nM and 1 nM.
On to `CC(c1cnc(N2CC[C@H]2CN2C[C@@H](O)[C@H](O)C2)nc1)n1cc(NC(=O)c2cncc(-c3c(C(F)F)ccc(Cl)c3F)n2)cn1` (stereo partly drawn) [Example 168, 6-(3-Chloro-6-(difluoromethyl)-2-fluorophenyl)-N-(1-(1-(2-((S)-2-(((3R,4R)-3,4-dihydroxypyrrolidin-1-yl)methyl)azetidin-1-yl)pyrimidin-5-yl)ethyl)-1H-pyrazol-4-yl)pyrazine-2-carboxamide], for which the IC50 turned out to be 6350 nM in experiment [1] and 2 nM in experiment [2].
The corresponding values for `CC(c1cnc(N2CC[C@H]2CN2C[C@@H](O)[C@H](F)C2)nc1)n1cc(NC(=O)c2cncc(-c3c(C(F)F)ccc(Cl)c3F)n2)cn1` (stereo partly drawn) [Example 169, 6-(3-Chloro-6-(difluoromethyl)-2-fluorophenyl)-N-(1-(1-(2-((S)-2-(((3R,4R)-3-fluoro-4-hydroxypyrrolidin-1-yl)methyl)azetidin-1-yl)pyrimidin-5-yl)ethyl)-1H-pyrazol-4-yl)pyrazine-2-carboxamide] are 9180 nM and 1.5 nM.
The matching figures for `CC(c1cnc(N2CC[C@H]2CN2CC(O)(C(C)C)C2)nc1)n1cc(NC(=O)c2cncc(-c3c(C(F)F)ccc(Cl)c3F)n2)cn1` (stereo partly drawn) [Example 173, 6-(3-Chloro-6-(difluoromethyl)-2-fluorophenyl)-N-(1-(1-(2-((S)-2-((3-hydroxy-3-isopropylazetidin-1-yl)methyl)azetidin-1-yl)pyrimidin-5-yl)ethyl)-1H-pyrazol-4-yl)pyrazine-2-carboxamide]: 8920 nM and 1 nM.
The corresponding values for `CC(c1cnc(N2CC[C@H]2CN2CC(C(C)(C)O)C2)nc1)n1cc(NC(=O)c2cncc(-c3c(C(F)F)ccc(Cl)c3F)n2)cn1` (stereo partly drawn) [Example 175, 6-(3-Chloro-6-(difluoromethyl)-2-fluorophenyl)-N-(1-(1-(2-((S)-2-((3-(2-hydroxypropan-2-yl)azetidin-1-yl)methyl)azetidin-1-yl)pyrimidin-5-yl)ethyl)-1H-pyrazol-4-yl)pyrazine-2-carboxamide] are 5080 nM and 0.6 nM.
Consider `CC(c1cnc(N2CC[C@H]2CN2CCC(O)CC2)nc1)n1cc(NC(=O)c2cncc(-c3c(C(F)F)ccc(Cl)c3F)n2)cn1` (stereo partly drawn) [Example 179, 6-(3-Chloro-6-(difluoromethyl)-2-fluorophenyl)-N-(1-(1-(2-((S)-2-((4-hydroxypiperidin-1-yl)methyl)azetidin-1-yl)pyrimidin-5-yl)ethyl)-1H-pyrazol-4-yl)pyrazine-2-carboxamide], for which the IC50 worked out at 9430 nM in experiment [1] and 0.7 nM in experiment [2].
The corresponding values for `CC(c1cnc(N2CC[C@H]2[C@@H](C)N2C[C@@H](O)[C@@H](O)C2)nc1)n1cc(NC(=O)c2cncc(-c3c(C(F)F)ccc(Cl)c3F)n2)cn1` (stereo partly drawn) [Example 187, 6-(3-Chloro-6-(difluoromethyl)-2-fluorophenyl)-N-(1-(1-(2-((S)-2-((R)-1-((3R,4S)-3,4-dihydroxypyrrolidin-1-yl)ethyl)azetidin-1-yl)pyrimidin-5-yl)ethyl)-1H-pyrazol-4-yl)pyrazine-2-carboxamide] are 3330 nM and 1 nM.
The matching figures for `CC(c1cnc(N2CC[C@H]2[C@@H](C)N2C[C@@H](O)[C@H](O)C2)nc1)n1cc(NC(=O)c2cncc(-c3c(C(F)F)ccc(Cl)c3F)n2)cn1` (stereo partly drawn) [Example 188, 6-(3-Chloro-6-(difluoromethyl)-2-fluorophenyl)-N-(1-(1-(2-((S)-2-((R)-1-((3R,4R)-3,4-dihydroxypyrrolidin-1-yl)ethyl)azetidin-1-yl)pyrimidin-5-yl)ethyl)-1H-pyrazol-4-yl)pyrazine-2-carboxamide]: 3330 nM and 3.2 nM.
Regarding `C[C@@H](c1cnc(N2C[C@@H]3C[C@@H]3[C@@H]2C#N)nc1)n1cc(NC(=O)c2cncc(-c3c(C(F)F)ccc(Cl)c3F)n2)cn1` [Example 199, 6-(3-chloro-6-(difluoromethyl)-2-fluorophenyl)-N-(1-((S)-1-(2-((1S,2R,5R)-2-cyano-3-azabicyclo[3.1.0]hexan-3-yl)pyrimidin-5-yl)ethyl)-1H-pyrazol-4-yl)pyrazine-2-carboxamide], the IC50 in experiment [1] amounted to 4790 nM; in experiment [2], 1.5 nM.
The matching figures for `NC(=O)c1cc(N2CCC2)ncc1Cn1cc(NC(=O)c2cncc(-c3c(C(F)F)ccc(Cl)c3F)n2)cn1` [Example 206, N-(1-((6-(Azetidin-1-yl)-4-carbamoylpyridin-3-yl)methyl)-1H-pyrazol-4-yl)-6-(3-chloro-6-(difluoromethyl)-2-fluorophenvl)pyrazine-2-carboxamide]: 820 nM and 24.4 nM.
The matching figures for `CS(=O)(=O)c1ccc(Cl)c(F)c1-c1cncc(C(=O)Nc2cnn(Cc3cnc(N4CCC4)nc3)c2)n1` [Example 207, N-(1-((2-(Azetidin-1-yl)pyrimidin-5-yl)methyl)-1H-pyrazol-4-yl)-6-(3-chloro-2-fluoro-6-(methylsulfonyl)phenyl)pyrazine-2-carboxamide]: 675 nM and 17.2 nM.
The corresponding values for `COc1ccc(C(F)F)c(-c2cncc(C(=O)Nc3cnn(Cc4cnc(N5CCC5)nc4)c3)n2)c1F` [Example 208, N-(1-((2-(Azetidin-1-yl)pyrimidin-5-yl)methyl)-1H-pyrazol-4-yl)-6-(6-(difluoromethyl)-2-fluoro-3-methoxyphenyl)pyrazine-2-carboxamide] are 827 nM and 33.9 nM.
